Laboratory results: the supplement of paper PMC11061612

Legend:
A673 (Ewing's Sarcoma) [1] = test: Bliss excess, mean over the matrix (fraction); higher = more synergy
In short: (§1)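 Cell lines grown in DMEM/F12 or RPMI with 10% FBS were plated in 1536-well plates and held 24 hours at 37°C, 5% CO2 before 72 hours of exposure to two-drug dose matrices, with DMSO typically at 0.2%. CellTiter-Glo 2.0 luminescence gave viability, which was converted to inhibition. Vehicle wells were set to 0 and blank wells to 1. Combination Emax is the second-highest inhibition in the matrix, and Bliss excess is the observed combination effect minus the expected EA + EB − EA·EB, where EA and EB are the single-agent effects.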

[2] = system: BE-13 (T-Lymphoblastic Leukemia); test: as above
In short: as §1

CAL-72 (Osteosarcoma) [3] = test: as above
In short: as §1

[4] = system: ESS-1 (Other Solid Carcinomas); test: as above
In short: as §1

EW-11 (Ewing's Sarcoma) [5] = test: as above
In short: as §1

GAMG (Glioblastoma) [6] = test: as above
In short: as §1

[7] = system: HH (T-Cell Non-Hodgkin's Lymphoma); test: as above
In short: as §1

[8] = system: HuCCT1 (Biliary Tract Carcinoma); test: as above
In short: as §1

KS-1 (Glioblastoma) [9] = test: as above
In short: as §1

[10] = system: KYAE-1 (Esophageal Adenocarcinoma); test: as above
In short: as §1

[11] = system: LNZTA3WT4 (Low Grade Glioma); test: as above
In short: as §1

LOXIMVI (Melanoma) [12] = test: as above
In short: as §1

[13] = system: LS-123 (Colorectal Carcinoma); test: as above
In short: as §1

MPP-89 (Mesothelioma) [14] = test: as above
In short: as §1

[15] = system: NCI-H524 (Small Cell Lung Carcinoma); test: as above
In short: as §1

[16] = system: OVCAR-5 (Ovarian Carcinoma); test: as above
In short: as §1

[17] = system: SAS (Oral Cavity Carcinoma); test: as above
In short: as §1

[18] = system: SNU-16 (Gastric Carcinoma); test: as above
In short: as §1

[19] = system: SNU-449 (Hepatocellular Carcinoma); test: as above
In short: as §1

[20] = system: SW1710 (Bladder Carcinoma); test: as above
In short: as §1

[21] = system: TGBC1TKB (Biliary Tract Carcinoma); test: as above
In short: as §1

[22] = system: WSU-NHL (B-Cell Non-Hodgkin's Lymphoma); test: as above
In short: as §1

[23] = system: YAPC (Pancreatic Carcinoma); test: as above
In short: as §1

A673 (Ewing's Sarcoma) [24] = test: combination Emax (second highest fraction inhibited in the dose matrix, 72 h); higher = more inhibition; extreme values may be limits of the assay
In short: as §1

[25] = system: BE-13 (T-Lymphoblastic Leukemia); test: as above
In short: as §1

CAL-72 (Osteosarcoma) [26] = test: as above
In short: as §1

[27] = system: ESS-1 (Other Solid Carcinomas); test: as above
In short: as §1

EW-11 (Ewing's Sarcoma) [28] = test: as above
In short: as §1

GAMG (Glioblastoma) [29] = test: as above
In short: as §1

[30] = system: HH (T-Cell Non-Hodgkin's Lymphoma); test: as above
In short: as §1

[31] = system: HuCCT1 (Biliary Tract Carcinoma); test: as above
In short: as §1

KS-1 (Glioblastoma) [32] = test: as above
In short: as §1

[33] = system: KYAE-1 (Esophageal Adenocarcinoma); test: as above
In short: as §1

[34] = system: LNZTA3WT4 (Low Grade Glioma); test: as above
In short: as §1

LOXIMVI (Melanoma) [35] = test: as above
In short: as §1

[36] = system: LS-123 (Colorectal Carcinoma); test: as above
In short: as §1

MPP-89 (Mesothelioma) [37] = test: as above
In short: as §1

[38] = system: NCI-H524 (Small Cell Lung Carcinoma); test: as above
In short: as §1

[39] = system: OVCAR-5 (Ovarian Carcinoma); test: as above
In short: as §1

[40] = system: SAS (Oral Cavity Carcinoma); test: as above
In short: as §1

[41] = system: SNU-16 (Gastric Carcinoma); test: as above
In short: as §1

[42] = system: SNU-449 (Hepatocellular Carcinoma); test: as above
In short: as §1

[43] = system: SW1710 (Bladder Carcinoma); test: as above
In short: as §1

[44] = system: WSU-NHL (B-Cell Non-Hodgkin's Lymphoma); test: as above
In short: as §1

[45] = system: YAPC (Pancreatic Carcinoma); test: as above
In short: as §1

[46] = system: TGBC1TKB (Biliary Tract Carcinoma); test: as above
In short: as §1
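Wherever Bliss excess, mean over the matrix is given: after 72 h of two-drug dosing.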

Cc1c2c(nn1C)CSCc1cc(n(C)n1)CSc1cc(c3ccccc3c1)OCCCc1c(C(=O)O)n(C)c3c-2c(Cl)ccc13 [AZD5991] + CS(=O)(=O)CCNCc1ccc(-c2ccc3ncnc(Nc4ccc(OCc5cccc(F)c5)c(Cl)c4)c3c2)o1 [Lapatinib] (first compound max 1 µM, 7x7, partner max 10 µM)
Bliss excess (A673 (Ewing's Sarcoma) [1]): 0.0006
Bliss excess [2]: 0.0363
Bliss excess (CAL-72 (Osteosarcoma) [3]): 0.0088
Bliss excess [4]: 0.0292
Bliss excess (EW-11 (Ewing's Sarcoma) [5]): -0.0014
Bliss excess (GAMG (Glioblastoma) [6]): 0.0088
Bliss excess [7]: -0.0635
Bliss excess [8]: 0.0065
Bliss excess (KS-1 (Glioblastoma) [9]): -0.0277
Bliss excess [10]: 0.0569
Bliss excess [11]: 0.0355
Bliss excess (LOXIMVI (Melanoma) [12]): 0.017
Bliss excess [13]: -0.0106
Bliss excess (MPP-89 (Mesothelioma) [14]): -0.0088
Bliss excess [15]: -0.0908
Bliss excess [16]: -0.0071
Bliss excess [17]: -0.0208
Bliss excess [18]: -0.0003
Bliss excess [19]: 0.0212
Bliss excess [20]: -0.0639
Bliss excess [21]: -0.0463
Bliss excess [22]: -0.0347
Bliss excess [23]: -0.0084
combination Emax (A673 (Ewing's Sarcoma) [24]): 0.388
combination Emax [25]: 0.936
combination Emax (CAL-72 (Osteosarcoma) [26]): 0.83
combination Emax [27]: 0.702
combination Emax (EW-11 (Ewing's Sarcoma) [28]): 0.572
combination Emax (GAMG (Glioblastoma) [29]): 0.507
combination Emax [30]: 0.868
combination Emax [31]: 0.482
combination Emax (KS-1 (Glioblastoma) [32]): 0.147
combination Emax [33]: 0.84
combination Emax [34]: 0.447
combination Emax (LOXIMVI (Melanoma) [35]): 0.535
combination Emax [36]: 0.394
combination Emax (MPP-89 (Mesothelioma) [37]): 0.312
combination Emax [38]: 0.502
combination Emax [39]: 0.334
combination Emax [40]: 0.485
combination Emax [41]: 0.998
combination Emax [42]: 0.547
combination Emax [43]: 0.185
combination Emax [44]: 0.909
combination Emax [45]: 0.186

C[C@@H](Nc1cc(F)cc(F)c1)c1cc(C(=O)N(C)C)cc2c(=O)cc(N3CCOCC3)oc12 [AZD8186] + C1CN(CCC1(C(=O)N[C@@H](CCO)C2=CC=C(C=C2)Cl)N)C3=NC=NC4=C3C=CN4 [AZD5363] (first compound max 10 µM, 7x7, partner max 10 µM)
Bliss excess (A673 (Ewing's Sarcoma) [1]): 0.0084
Bliss excess [2]: -0.028
Bliss excess (CAL-72 (Osteosarcoma) [3]): -0.0293
Bliss excess [4]: -0.0165
Bliss excess (EW-11 (Ewing's Sarcoma) [5]): -0.0265
Bliss excess (GAMG (Glioblastoma) [6]): -0.0849
Bliss excess [7]: -0.125
Bliss excess [8]: -0.0171
Bliss excess (KS-1 (Glioblastoma) [9]): -0.0233
Bliss excess [10]: -0.0101
Bliss excess [11]: -0.0615
Bliss excess (LOXIMVI (Melanoma) [12]): -0.0495
Bliss excess [13]: -0.0327
Bliss excess (MPP-89 (Mesothelioma) [14]): -0.0635
Bliss excess [15]: -0.0342
Bliss excess [16]: -0.0442
Bliss excess [17]: -0.0226
Bliss excess [18]: -0.0549
Bliss excess [19]: -0.0206
Bliss excess [20]: -0.0408
Bliss excess [21]: 0.0539
Bliss excess [22]: -0.0018
Bliss excess [23]: -0.0214
combination Emax (A673 (Ewing's Sarcoma) [24]): 0.253
combination Emax [25]: 0.16
combination Emax (CAL-72 (Osteosarcoma) [26]): 0.29
combination Emax [27]: 0.549
combination Emax (EW-11 (Ewing's Sarcoma) [28]): 0.579
combination Emax (GAMG (Glioblastoma) [29]): 0.657
combination Emax [30]: 0.299
combination Emax [31]: 0.413
combination Emax (KS-1 (Glioblastoma) [32]): 0.458
combination Emax [33]: 0.154
combination Emax [34]: 0.357
combination Emax (LOXIMVI (Melanoma) [35]): 0.287
combination Emax [36]: 0.408
combination Emax (MPP-89 (Mesothelioma) [37]): 0.382
combination Emax [38]: 0.224
combination Emax [39]: 0.432
combination Emax [40]: 0.364
combination Emax [41]: 0.22
combination Emax [42]: 0.198
combination Emax [43]: 0.495
combination Emax [46]: 0.559
combination Emax [44]: 0.9
combination Emax [45]: 0.246

O=C(c1cc(Cc2n[nH]c(=O)c3ccccc23)ccc1F)N1CCN(C(=O)C2CC2)CC1 [Olaparib] + Cc1c2c(nn1C)CSCc1cc(n(C)n1)CSc1cc(c3ccccc3c1)OCCCc1c(C(=O)O)n(C)c3c-2c(Cl)ccc13 [AZD5991] (first compound max 10 µM, 7x7, partner max 1 µM)
Bliss excess (A673 (Ewing's Sarcoma) [1]): -0.0566
Bliss excess [2]: 0.0142
Bliss excess (CAL-72 (Osteosarcoma) [3]): -0.0242
Bliss excess [4]: -0.0255
Bliss excess (EW-11 (Ewing's Sarcoma) [5]): -0.0175
Bliss excess (GAMG (Glioblastoma) [6]): -0.0488
Bliss excess [7]: -0.0339
Bliss excess [8]: -0.0367
Bliss excess (KS-1 (Glioblastoma) [9]): -0.0463
Bliss excess [10]: 0.0031
Bliss excess [11]: -0.0468
Bliss excess (LOXIMVI (Melanoma) [12]): -0.0409
Bliss excess [13]: -0.0658
Bliss excess (MPP-89 (Mesothelioma) [14]): -0.0586
Bliss excess [15]: 0.0147
Bliss excess [16]: -0.0729
Bliss excess [17]: -0.0344
Bliss excess [18]: 0.0603
Bliss excess [19]: -0.045
Bliss excess [20]: -0.0476
Bliss excess [21]: -0.0334
Bliss excess [22]: 0.0217
Bliss excess [23]: -0.0367
combination Emax (A673 (Ewing's Sarcoma) [24]): 0.446
combination Emax [25]: 0.498
combination Emax (CAL-72 (Osteosarcoma) [26]): 0.191
combination Emax [27]: 0.403
combination Emax (EW-11 (Ewing's Sarcoma) [28]): 0.831
combination Emax (GAMG (Glioblastoma) [29]): 0.0955
combination Emax [30]: 0.809
combination Emax [31]: 0.15
combination Emax (KS-1 (Glioblastoma) [32]): 0.0895
combination Emax [33]: 0.231
combination Emax [34]: 0.123
combination Emax (LOXIMVI (Melanoma) [35]): 0.311
combination Emax [36]: 0.127
combination Emax (MPP-89 (Mesothelioma) [37]): 0.0575
combination Emax [38]: 0.426
combination Emax [39]: 0.122
combination Emax [40]: 0.122
combination Emax [41]: 0.994
combination Emax [42]: 0.0781
combination Emax [43]: 0.119
combination Emax [46]: 0.157
combination Emax [44]: 0.797
combination Emax [45]: 0.104

N#Cc1cnc(Nc2cc(NC[C@H]3CNCCO3)c(C(F)(F)F)cn2)cn1 [SRA737] + Nc1ccn([C@@H]2O[C@H](CO)[C@@H](O)C2(F)F)c(=O)n1 [Gemcitabine] (first compound max 10 µM, 7x7, partner max 0.3 µM)
Bliss excess (A673 (Ewing's Sarcoma) [1]): 0.0343
Bliss excess [2]: 0.0965
Bliss excess (CAL-72 (Osteosarcoma) [3]): 0.0042
Bliss excess [4]: 0.0477
Bliss excess (EW-11 (Ewing's Sarcoma) [5]): -0.0557
Bliss excess (GAMG (Glioblastoma) [6]): 0.182
Bliss excess [7]: 0.0878
Bliss excess [8]: 0.0507
Bliss excess (KS-1 (Glioblastoma) [9]): 0.0304
Bliss excess [10]: 0.0075
Bliss excess [11]: 0.0301
Bliss excess (LOXIMVI (Melanoma) [12]): -0.0122
Bliss excess [13]: 0.0948
Bliss excess (MPP-89 (Mesothelioma) [14]): 0.0014
Bliss excess [15]: 0.0346
Bliss excess [16]: 0.0627
Bliss excess [17]: 0.105
Bliss excess [18]: -0.103
Bliss excess [19]: 0.0307
Bliss excess [20]: 0.164
Bliss excess [21]: 0.0401
Bliss excess [22]: 0.017
Bliss excess [23]: 0.0439
combination Emax (A673 (Ewing's Sarcoma) [24]): 0.946
combination Emax [25]: 1
combination Emax (CAL-72 (Osteosarcoma) [26]): 0.72
combination Emax [27]: 1
combination Emax (EW-11 (Ewing's Sarcoma) [28]): 0.854
combination Emax (GAMG (Glioblastoma) [29]): 0.892
combination Emax [30]: 0.634
combination Emax [31]: 0.792
combination Emax (KS-1 (Glioblastoma) [32]): 0.5
combination Emax [33]: 0.19
combination Emax [34]: 0.882
combination Emax (LOXIMVI (Melanoma) [35]): 0.881
combination Emax [36]: 0.759
combination Emax (MPP-89 (Mesothelioma) [37]): 0.656
combination Emax [38]: 1
combination Emax [39]: 0.685
combination Emax [40]: 0.956
combination Emax [41]: 1
combination Emax [42]: 0.515
combination Emax [43]: 0.676
combination Emax [46]: 0.457
combination Emax [44]: 0.993
combination Emax [45]: 0.655
